Test results as given in patent US8614201B2 (Janssen Pharmaceutica NV, priority 2009, dated 2013).

Target: Human TRPA1 (Homo sapiens, UniProt O75762)
Test: Assay 1: In vitro cellular testing of TRPA1 modulation (CHO-TREx, Fluo-3 calcium fluorescence, AITC agonist)
Format: cell-based
Design: expressed in transfected cells; host or cells: CHO-TREx cells (Invitrogen), vector pcDNA4/TO
Details: CHO-TREx cells expressing human TRPA1; Fluo-3 fluorescence (FLIPR/Tetra); agonist 15 μM allyl isothiocyanate (AITC); 30 minute antagonist incubation
Procedure, shortened: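 Tetracycline-induced CHO-TREx cells stably expressing human TRPA1, loaded with 4 μM Fluo-3 AM, preincubated 30 min with compound (serial dilution typically from 10 μM, three-fold steps) in HEPES saline pH 7.4. Fluorescence change over 3 min after 15 μM AITC; IC50 from Hill fit versus no-antagonist and 10 μM ruthenium red controls.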

Sequence of Human TRPA1 (O75762 whole entry): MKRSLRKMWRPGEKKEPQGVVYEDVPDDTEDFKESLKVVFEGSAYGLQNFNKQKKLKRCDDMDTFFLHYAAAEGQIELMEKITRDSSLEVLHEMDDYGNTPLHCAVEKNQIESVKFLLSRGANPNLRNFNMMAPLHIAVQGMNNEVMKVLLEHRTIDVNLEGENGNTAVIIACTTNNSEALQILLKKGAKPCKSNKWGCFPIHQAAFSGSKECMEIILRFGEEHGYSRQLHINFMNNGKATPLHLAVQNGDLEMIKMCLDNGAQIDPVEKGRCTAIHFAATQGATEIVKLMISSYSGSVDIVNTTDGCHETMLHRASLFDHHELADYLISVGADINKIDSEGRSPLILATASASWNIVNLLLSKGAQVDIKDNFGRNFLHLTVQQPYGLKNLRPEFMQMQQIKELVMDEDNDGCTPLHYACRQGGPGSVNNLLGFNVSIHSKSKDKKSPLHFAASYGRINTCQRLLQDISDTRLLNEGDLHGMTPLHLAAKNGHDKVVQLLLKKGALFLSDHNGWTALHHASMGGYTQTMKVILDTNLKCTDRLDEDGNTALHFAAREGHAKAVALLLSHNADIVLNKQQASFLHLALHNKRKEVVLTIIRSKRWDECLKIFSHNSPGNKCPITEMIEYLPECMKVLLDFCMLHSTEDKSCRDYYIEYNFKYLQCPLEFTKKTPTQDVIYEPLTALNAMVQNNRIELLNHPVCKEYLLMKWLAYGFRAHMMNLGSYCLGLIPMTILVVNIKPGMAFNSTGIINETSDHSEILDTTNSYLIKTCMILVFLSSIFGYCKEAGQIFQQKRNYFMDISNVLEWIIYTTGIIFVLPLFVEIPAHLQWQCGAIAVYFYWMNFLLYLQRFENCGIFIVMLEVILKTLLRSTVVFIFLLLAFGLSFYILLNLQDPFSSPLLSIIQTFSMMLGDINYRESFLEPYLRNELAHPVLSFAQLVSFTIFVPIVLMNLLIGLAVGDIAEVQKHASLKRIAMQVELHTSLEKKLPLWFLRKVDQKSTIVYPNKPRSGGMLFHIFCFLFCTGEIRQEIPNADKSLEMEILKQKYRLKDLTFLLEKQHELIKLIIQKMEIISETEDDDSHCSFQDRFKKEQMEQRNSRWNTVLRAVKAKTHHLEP

Row | IC50 [nM] | Structure (SMILES)
1 | 401 | O=C(NCc1cc(-c2ccc(C(F)(F)F)cc2)ncn1)[C@@H]1CCCN1S(=O)(=O)c1ccccc1F [Example 153, 1-(2-Fluorobenzenesulfonyl)-pyrrolidine-2S-carboxylic acid [6-(4-trifluoromethylphenyl)-pyrimidin-4-ylmethyl]-amide]
2 | 44 | O=C(NCc1cc(-c2ccc(C(F)(F)F)cc2)ncn1)[C@@H]1CCCN1S(=O)(=O)c1cccc(F)c1 [Example 154, 1-(3-Fluorobenzenesulfonyl)-pyrrolidine-2S-carboxylic acid [6-(4-trifluoromethylphenyl)-pyrimidin-4-ylmethyl]-amide]
3 | 1020 | Cc1ccccc1S(=O)(=O)N1CCC[C@H]1C(=O)NCc1cc(-c2ccc(C(F)(F)F)cc2)ncn1 [Example 155, 1-(Toluene-2-sulfonyl)-pyrrolidine-2S-carboxylic acid [6-(4-trifluoromethylphenyl)-pyrimidin-4-ylmethyl]-amide]
4 | 388 | Cc1cccc(S(=O)(=O)N2CCC[C@H]2C(=O)NCc2cc(-c3ccc(C(F)(F)F)cc3)ncn2)c1 [Example 156, 1-(Toluene-3-sulfonyl)-pyrrolidine-2S-carboxylic acid [6-(4-trifluoromethylphenyl)-pyrimidin-4-ylmethyl]-amide]
5 | 4690 | O=C(NCc1cc(-c2ccc(C(F)(F)F)cc2)ncn1)[C@@H]1CCCN1S(=O)(=O)c1cccc(C(F)(F)F)c1 [Example 157, 1-(3-Trifluoromethylbenzenesulfonyl)-pyrrolidine-2S-carboxylic acid [6-(4-trifluoromethylphenyl)-pyrimidin-4-ylmethyl]-amide]
6 | 587 | O=C(NCc1cc(-c2ccc(C(F)(F)F)cc2)ncn1)[C@@H]1CCCN1S(=O)(=O)c1ccc(C(F)(F)F)cc1 [Example 158, 1-(4-Trifluoromethylbenzenesulfonyl)-pyrrolidine-2S-carboxylic acid [6-(4-trifluoromethylphenyl)-pyrimidin-4-ylmethyl]-amide]
7 | 1090 | N#Cc1ccc(S(=O)(=O)N2CCC[C@H]2C(=O)NCc2cc(-c3ccc(C(F)(F)F)cc3)ncn2)cc1 [Example 159, 1-(4-Cyanobenzenesulfonyl)-pyrrolidine-2S-carboxylic acid [6-(4-trifluoromethylphenyl)-pyrimidin-4-ylmethyl]-amide]
8 | 77 | O=C(NCc1cc(-c2ccc(C(F)(F)F)cc2)ncn1)[C@@H]1CCCN1S(=O)(=O)c1ccccc1 [Example 160, 1-Benzenesulfonylpyrrolidine-2S-carboxylic acid [6-(4-trifluoromethylphenyl)-pyrimidin-4-ylmethyl]-amide]
9 | 137 | Cc1ccc(S(=O)(=O)N2CCC[C@H]2C(=O)NCc2cc(-c3ccc(C(F)(F)F)cc3)ncn2)cc1 [Example 161, 1-(Toluene-4-sulfonyl)-pyrrolidine-2S-carboxylic acid [6-(4-trifluoromethylphenyl)-pyrimidin-4-ylmethyl]-amide]

Continued, compound first:

Row | Structure (SMILES) | IC50 [nM]
10 | O=C(NCc1cc(-c2ccc(C(F)(F)F)cc2)ccn1)[C@@H]1CC(F)(F)CN1S(=O)(=O)c1ccc(F)cc1 [Example 139, 4,4-Difluoro-1-(4-fluoro-benzenesulfonyl)-pyrrolidine-2S-carboxylic acid [4-(4-trifluoromethyl-phenyl)-pyridin-2-ylmethyl]-amide] | 73
11 | O=C(NCc1cc(-c2ccc(C(F)(F)F)cc2)ccn1)[C@@H]1CC(F)(F)CN1S(=O)(=O)c1ccc(Cl)s1 [Example 140, 1-(5-Chloro-thiophene-2-sulfonyl)-4,4-difluoro-pyrrolidine-2S-carboxylic acid [4-(4-trifluoromethyl-phenyl)-pyridin-2-ylmethyl]-amide] | 79
12 | O=C(NCc1cc(-c2ccc(OC(F)(F)F)cc2)ccn1)[C@@H]1CC(F)(F)CN1S(=O)(=O)c1ccc(F)cc1 [Example 141, 4,4-Difluoro-1-(4-fluoro-benzenesulfonyl)-pyrrolidine-2S-carboxylic acid [4-(4-trifluoromethoxy-phenyl)-pyridin-2-ylmethyl]-amide] | 73
13 | O=C(NCc1cc(-c2ccc(OC(F)(F)F)cc2)ccn1)[C@@H]1CC(F)(F)CN1S(=O)(=O)c1ccc(Cl)s1 [Example 142, 1-(5-Chloro-thiophene-2-sulfonyl)-4,4-difluoro-pyrrolidine-2S-carboxylic acid [4-(4-trifluoromethoxy-phenyl)-pyridin-2-ylmethyl]-amide] | 78
14 | O=C(NCc1cc(-c2ccc(C(F)(F)F)cc2)ccn1)[C@@H]1C=CCN1S(=O)(=O)c1ccc(F)cc1 [Example 143, 1-(4-Fluoro-benzenesulfonyl)-2,5-dihydro-1H-pyrrole-2S-carboxylic acid [4-(4-trifluoromethyl-phenyl)-pyridin-2-ylmethyl]-amide] | 10
15 | O=C(NCc1cc(-c2ccc(C(F)(F)F)cc2)ccn1)[C@@H]1C=CCN1S(=O)(=O)c1ccc(Cl)s1 [Example 144, 1-(5-Chloro-thiophene-2-sulfonyl)-2,5-dihydro-1H-pyrrole-2S-carboxylic acid [4-(4-trifluoromethyl-phenyl)-pyridin-2-ylmethyl]-amide] | 22
16 | O=C(NCc1cc(-c2ccc(OC(F)(F)F)cc2)ccn1)[C@@H]1C=CCN1S(=O)(=O)c1ccc(F)cc1 [Example 145, 1-(4-Fluoro-benzenesulfonyl)-2,5-dihydro-1H-pyrrole-2S-carboxylic acid [4-(4-trifluoromethoxy-phenyl)-pyridin-2-ylmethyl]-amide] | 28
17 | O=C(NCc1cc(-c2ccc(OC(F)(F)F)cc2)ccn1)[C@@H]1C=CCN1S(=O)(=O)c1ccc(Cl)s1 [Example 146, 1-(5-Chloro-thiophene-2-sulfonyl)-2,5-dihydro-1H-pyrrole-2S-carboxylic acid [4-(4-trifluoromethoxy-phenyl)-pyridin-2-ylmethyl]-amide] | 52
18 | O=C(NCc1cc(-c2ccc(C(F)(F)F)cc2)ncn1)[C@@H]1CCCN1S(=O)(=O)c1ccc(Br)cc1 [Example 147, 1-(4-Bromobenzenesulfonyl)-pyrrolidine-2S-carboxylic acid [6-(4-trifluoromethylphenyl)-pyrimidin-4-ylmethyl]-amide] | 92
19 | O=C(NCc1cc(-c2ccc(C(F)(F)F)cc2)ncn1)[C@@H]1CCCN1S(=O)(=O)c1ccc(F)c(F)c1 [Example 148, 1-(3,4-Difluorobenzenesulfonyl)-pyrrolidine-2S-carboxylic acid [6-(4-trifluoromethylphenyl)-pyrimidin-4-ylmethyl]-amide] | 28
20 | O=C(NCc1cc(-c2ccc(C(F)(F)F)cc2)ncn1)[C@@H]1CCCN1S(=O)(=O)c1ccc(OC(F)(F)F)cc1 [Example 149, 1-(4-Trifluoromethoxybenzenesulfonyl)-pyrrolidine-2S-carboxylic acid [6-(4-trifluoromethylphenyl)-pyrimidin-4-ylmethyl]-amide] | 3650
21 | COc1ccc(S(=O)(=O)N2CCC[C@H]2C(=O)NCc2cc(-c3ccc(C(F)(F)F)cc3)ncn2)cc1 [Example 150, 1-(4-Methoxybenzenesulfonyl)-pyrrolidine-2S-carboxylic acid [6-(4-trifluoromethylphenyl)-pyrimidin-4-ylmethyl]-amide] | 383
22 | O=C(NCc1cc(-c2ccc(C(F)(F)F)cc2)ncn1)[C@@H]1CCCN1S(=O)(=O)c1ccc(Cl)cc1 [Example 152, 1-(4-Chlorobenzenesulfonyl)-pyrrolidine-2S-carboxylic acid [6-(4-trifluoromethyl-Phenyl)-pyrimidin-4-ylmethyl]-amide] | 66
